Columns and labels:
[1] = system: Apt4 (DNA, aptamer) GACCGGAGGGGCATCAGCTGTCCGTGAGGTTGCCGCGAGT; experiment: fluorescence enhancement; conditions: 150 mM Na+; 14x enhancement; 1 µM DNA, 5 µM ThT; 50 mM Tris, pH 7.4
[2] = system: Apt5.13-36 (DNA, aptamer) GCTATTAGGAGGTGGGATGCGTCA; experiment: fluorescence enhancement; conditions: 150 mM Na+; less fluorescent than Apt5; 1 µM DNA, 5 µM ThT; 50 mM Tris, pH 7.4
[3] = system: Primer-215 (DNA, single strand) ATGACCTATGAATTGACAGAC; experiment: fluorescence enhancement; conditions: no fluorescence; 5 µM ThT, 1 µM oligonucleotide; text says miR-215 (Primer-215)
[4] = system: Apt5.1-24 (DNA, aptamer) GCGTAGATCGAGGCTATTAGGAGG; experiment: fluorescence enhancement; conditions: 150 mM Na+; less fluorescent than Apt5; 1 µM DNA, 5 µM ThT; 50 mM Tris, pH 7.4
[5] = system: Apt2 (DNA, aptamer) GACCGGAGGGGCATCAGCTGTCCGTGAGGTTGCCGCGAG; experiment: fluorescence enhancement; conditions: 150 mM Na+; 13x enhancement; 1 µM DNA, 5 µM ThT; 50 mM Tris, pH 7.4
[6] = system: Apt5.9-32 (DNA, aptamer) CGAGGCTATTAGGAGGTGGGATGC; experiment: fluorescence titration, 510 nm; conditions: 150 mM Na+; 50 mM Tris, pH 7.4; 1 µM ThT, aptamer 2.5-50 µM; mean of three
[7] = system: Apt1 (DNA, aptamer) TCGCGTGTGCAGAGGCGAGTAGGTGGGAGATCTGTCTGGG; experiment: fluorescence enhancement; conditions: 150 mM Na+; 9x enhancement; 1 µM DNA, 5 µM ThT; 50 mM Tris, pH 7.4
[8] = system: Apt5 (DNA, aptamer) GCGTAGATCGAGGCTATTAGGAGGTGGGATGCGTCAGGGC; experiment: fluorescence enhancement; conditions: 150 mM Na+; 61x enhancement; 1 µM DNA, 5 µM ThT; 50 mM Tris, pH 7.4
[9] = system: ThT.2-2 (DNA, aptamer) GACGACGACACAGGATTAATCTTATTAGTCGTC; experiment: fluorescence enhancement; conditions: less fluorescent than Apt5.9-32; several concentrations
[10] = system: Apt5.17-40 (DNA, aptamer) TTAGGAGGTGGGATGCGTCAGGGC; experiment: fluorescence enhancement; conditions: 150 mM Na+; less fluorescent than Apt5; 1 µM DNA, 5 µM ThT; 50 mM Tris, pH 7.4
[11] = system: PW17Ext (DNA, G4) GAGGAGGAGGAGGAGAGGGTAGGGCGGGTTGGG; experiment: fluorescence melting; conditions: 150 mM Na+, 10 mM K+; 50 mM Tris, pH 7.4; complex more stable than without K+
[12] = system: Apt3 (DNA, aptamer) GCACGTCCAGGACGGGGGAGCGGTGCTAGTGTCTGGCAGG; experiment: fluorescence enhancement; conditions: 150 mM Na+; 20x enhancement; 1 µM DNA, 5 µM ThT; 50 mM Tris, pH 7.4
[13] = system: Apt5.5-28 (DNA, aptamer) AGATCGAGGCTATTAGGAGGTGGG; experiment: fluorescence enhancement; conditions: 150 mM Na+; less fluorescent than Apt5; 1 µM DNA, 5 µM ThT; 50 mM Tris, pH 7.4

Cc1ccc2c(c1)sc(-c1ccc(N(C)C)cc1)[n+]2C
binding [1]: yes | binding [2]: weak | binding [3]: no | binding [4]: weak | binding [5]: yes | dissociation constant [6]: 6 ± 2 µM | binding [7]: yes | binding [8]: yes | binding [9]: yes | binding [10]: weak | binding [11]: yes | binding [12]: yes | binding [13]: weak

Source: publication PMC7900183 (2021)
